Measurements reported in patent US5182273A, “Spirocyclic N, O derivatives of cyclotriphosphazenes and their use in therapy” (Pierre Fabre Medicament, priority 1990, dated 1993).

test system: mouse L1210 leukemic cells; assay: In vitro cytotoxicity, inhibition of cell growth (cell counter); type: cell-based; conditions: read-out: IC50 (concentration for which 50% inhibition of cell growth is obtained)
Method: The cytotoxic activity in vitro was evaluated by the determination of the IC50 (concentration for which 50% inhibition of cell growth is obtained) on mouse L1210 leukemic cells.
The IC50 is evaluated by means of a cell counter.

Q: Which IC50 does the source give for `c1ccc(CCN2CCCOP23=NP(N2CC2)(N2CC2)=NP(N2CC2)(N2CC2)=N3)cc1` (centres unmarked) [Compound 8, 11-(2-Phenylethyl)-2,2,4,4-tetra-1-aziridinyl-2,2,4,4-tetrahydro-7-oxa-1,3,5,11-tetraaza-2,4,6λ^5-triphosphaspiro-[5,5]-undeca-1,3,5-triene] here?
A: The IC50 was 6.5 µM.

Q: With `C1CCC(N2CCCOP23=NP(N2CC2)(N2CC2)=NP(N2CC2)(N2CC2)=N3)CC1` (centres unmarked) [Compound 4, 11-Cyclohexyl-2,2,4,4-tetra-1-aziridinyl-2,2,4,4-tetrahydro-7-oxa-1,3,5,11-tetraaza-2,4,6λ^5-triphosphaspiro-[5,5]-undeca-1,3,5-triene] as the molecule, how does the IC50 read?
A: Its IC50 is 9.9 µM.

Q: With `CN1CCOP12=NP(N1CC1)(N1CC1)=NP(N1CC1)(N1CC1)=N2` (centres unmarked) [Compound 1, 4-methyl-7,7,9,9-tetra-1-aziridinyl-7,7,9,9-tetrahydro-1-oxa-4,6,8,10-tetraaza-5λ^5-7,9-triphosphaspiro-[4,5]-deca-5,7,9-triene] as the molecule, how does the IC50 read?
A: Its IC50 is 9 µM.

Q: How did the IC50 turn out when `c1ccc(CCN2CCOP23=NP(N2CC2)(N2CC2)=NP(N2CC2)(N2CC2)=N3)cc1` (centres unmarked) [Compound 7, 4-(2-Phenylethyl)-7,7,9,9-tetra-1-aziridinyl-7,7,9,9-tetrahydro-1-oxa-4,6,8,10-tetraaza-5λ^5,7,9-triphosphaspiro-[4,5]-deca-5,7,9-triene] was run?
A: Its IC50 is 7.8 µM.

Q: `c1ccc(CN2CCCOP23=NP(N2CC2)(N2CC2)=NP(N2CC2)(N2CC2)=N3)cc1` (centres unmarked) [Compound 6, 11-Phenylmethyl-2,2,4,4-tetra-1-aziridinyl-2,2,4,4-tetrahydro-7-oxa-1,3,5,11-tetraaza-2,4,6λ^5-triphosphaspiro-[5,5]-undeca-1,3,5-triene] was tested. Which IC50 did it give?
A: The IC50 was 5.8 µM.

Q: With `C1CNP2(=NP(N3CC3)(N3CC3)=NP(N3CC3)(N3CC3)=N2)OC1` (centres unmarked) [Compound 3, 2,2,4,4-Tetra-1-aziridinyl-2,2,4,4-tetrahydro-7-oxa-1,3,5,11-tetraaza-2,4,6λ^5-triphosphaspiro-[5,5]-undeca-1,3,5-triene] as the molecule, how does the IC50 read?
A: Its IC50 is 2.3 µM.

Q: `c1ccc(CN2CCOP23=NP(N2CC2)(N2CC2)=NP(N2CC2)(N2CC2)=N3)cc1` (centres unmarked) [Compound 5, 4-Phenylmethyl-7,7,9,9-tetra-1-aziridinyl-7,7,9,9-tetrahydro-1-oxa-4,6,8,10-tetraaza-5λ^5,7,9-triphosphaspiro-[4,5]-deca-5,7,9-triene] was tested. Which IC50 did it give?
A: Its IC50 is 5.8 µM.

Q: For `C1COP2(=NP(N3CC3)(N3CC3)=NP(N3CC3)(N3CC3)=N2)N1` (centres unmarked) [Compound 2, 7,7,9,9-Tetra-1-aziridinyl-7,7,9,9-tetrahydro-1-oxa-4,6,8,10-tetraaza-5λ^5,7,9-triphosphaspiro-[4,5]-deca-5,7,9-triene], which IC50 is on record?
A: The IC50 was 8.7 µM.
